# Test results as given in ChEMBL document CHEMBL1201862, “PubChem BioAssay data set” (2004).
# The source made the active and inactive calls.
# What was measured:
# [1] = target: T1, Corticotropin-releasing factor receptor 2/Corticotropin-releasing factor-binding protein (Homo sapiens, UniProt P24387+Q13324); experiment: Dose Response confirmation of uHTS hits for small molecule antagonists of the CRF-binding protein and CRF-R2 receptor complex.; assay type: functional; conditions: read-out: IC50_Mean
# T1 sequence (Q13324 whole entry): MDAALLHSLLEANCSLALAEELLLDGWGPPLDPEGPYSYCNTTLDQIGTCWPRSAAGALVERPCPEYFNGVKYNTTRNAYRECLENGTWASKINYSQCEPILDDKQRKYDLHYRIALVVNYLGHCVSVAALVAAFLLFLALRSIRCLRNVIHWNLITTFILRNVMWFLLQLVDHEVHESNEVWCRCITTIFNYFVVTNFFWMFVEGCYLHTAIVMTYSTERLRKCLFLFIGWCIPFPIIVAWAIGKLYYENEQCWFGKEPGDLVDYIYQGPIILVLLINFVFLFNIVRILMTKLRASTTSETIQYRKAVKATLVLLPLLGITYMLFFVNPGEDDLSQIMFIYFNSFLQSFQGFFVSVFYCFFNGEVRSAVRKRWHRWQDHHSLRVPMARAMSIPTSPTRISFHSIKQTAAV
# T1 sequence (P24387 whole entry): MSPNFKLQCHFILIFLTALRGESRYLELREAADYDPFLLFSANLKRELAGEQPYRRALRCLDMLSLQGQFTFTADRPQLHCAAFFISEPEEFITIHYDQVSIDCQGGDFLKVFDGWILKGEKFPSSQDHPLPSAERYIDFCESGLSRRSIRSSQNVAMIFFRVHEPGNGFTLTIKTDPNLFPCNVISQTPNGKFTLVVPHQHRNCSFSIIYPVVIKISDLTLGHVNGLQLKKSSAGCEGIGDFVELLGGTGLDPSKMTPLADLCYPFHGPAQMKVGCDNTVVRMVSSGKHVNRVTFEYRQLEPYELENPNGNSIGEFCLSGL
# [2] = target: T1, Corticotropin-releasing factor receptor 2/Corticotropin-releasing factor-binding protein; experiment: activators of CRF receptor 2 with binding protein – uHTS hits, confirmation (AID 602473); assay type: functional; conditions: read-out: EC50_Mean
# [3] = blockers of CRF-binding protein–CRF-R2 complex – cell-based, uHTS hits, 384-well, dose response (AID 651639); assay type: functional, Homo sapiens; conditions: read-out: IC50_Mean
# [4] = target: T2, Carboxy-terminal domain RNA polymerase II polypeptide A small phosphatase 1 (Homo sapiens, UniProt Q9GZU7); experiment: CTDSP1 inhibitors, concentration-response, biochemical, absorbance readout, ultra-high-throughput screen actives (AID 540297); assay type: functional
# T2 sequence (Q9GZU7 whole entry): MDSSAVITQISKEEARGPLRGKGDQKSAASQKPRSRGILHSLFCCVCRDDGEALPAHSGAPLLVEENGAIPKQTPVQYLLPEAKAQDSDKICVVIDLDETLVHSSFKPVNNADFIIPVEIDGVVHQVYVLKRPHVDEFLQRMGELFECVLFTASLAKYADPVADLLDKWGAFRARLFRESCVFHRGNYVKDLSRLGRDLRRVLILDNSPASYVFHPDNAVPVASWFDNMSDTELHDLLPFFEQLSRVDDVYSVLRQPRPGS
# HEK293 = experiment: EBV LMP1 TES2 canonical NF-kB signalling blockers – cell-based, HEK293, luciferase, cherry-pick, dose response (AID 588343); assay type: functional; conditions: Homo sapiens
# [5] = target: T3, RNA-binding protein pos-1 (Caenorhabditis elegans, UniProt G5EF15); experiment: disruptors of C. elegans POS-1 RNA interaction – biochemical, fluorescence polarization, dose response (AID 1964);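 further: purified POS-1 fused to maltose binding protein made in E. coli; potency of compounds blocking POS-1 binding to fluorescent RNA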
# T3 sequence (G5EF15 whole entry): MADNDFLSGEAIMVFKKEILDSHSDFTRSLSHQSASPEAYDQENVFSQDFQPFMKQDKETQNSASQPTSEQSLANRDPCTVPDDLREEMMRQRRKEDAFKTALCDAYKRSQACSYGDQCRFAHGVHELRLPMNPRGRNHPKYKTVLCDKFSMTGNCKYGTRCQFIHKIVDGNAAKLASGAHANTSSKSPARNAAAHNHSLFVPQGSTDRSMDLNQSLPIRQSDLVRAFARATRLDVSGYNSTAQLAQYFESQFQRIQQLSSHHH
# [6] = test system: Streptococcus sp. 'group A'; experiment: Streptococcus pyogenes SK(-)GAS viability under kanamycin – luminescence, BacTiterGlo, confirmation, counter-screen for streptokinase expression inhibitor project, dose response (AID 1900); assay type: functional, organism-based
# [7] = target: T4, Zinc finger protein mex-5 (Caenorhabditis elegans, UniProt Q9XUB2); experiment: potency of MEX-5 RNA-binding blockers – biochemical, C. elegans, fluorescence polarization, dose response (AID 1960)
# T4 sequence (Q9XUB2 whole entry): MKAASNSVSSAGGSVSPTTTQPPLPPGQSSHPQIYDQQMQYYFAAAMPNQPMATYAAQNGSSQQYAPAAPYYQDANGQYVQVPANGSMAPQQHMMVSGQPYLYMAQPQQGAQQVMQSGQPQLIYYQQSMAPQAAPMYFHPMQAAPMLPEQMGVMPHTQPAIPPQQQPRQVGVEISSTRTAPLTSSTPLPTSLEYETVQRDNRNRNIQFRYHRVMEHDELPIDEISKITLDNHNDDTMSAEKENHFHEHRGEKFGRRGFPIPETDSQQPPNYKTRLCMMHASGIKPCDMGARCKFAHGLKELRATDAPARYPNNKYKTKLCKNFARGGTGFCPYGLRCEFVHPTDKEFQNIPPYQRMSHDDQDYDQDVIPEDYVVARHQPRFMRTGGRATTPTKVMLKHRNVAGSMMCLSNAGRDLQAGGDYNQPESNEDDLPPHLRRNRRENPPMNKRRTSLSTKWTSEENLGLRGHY
# Streptokinase A = target: T5, Streptokinase A (Streptococcus pyogenes serotype M1, UniProt P10520); experiment: viability-normalized secreted streptokinase activity reduction – plasminogen activation absorbance, OD405, dose response (AID 1914); assay type: functional, Streptococcus pyogenes M1 GAS;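 further: secreted streptokinase activity via plasminogen activation per viability signal from cell pellet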
# T5 sequence (P10520 whole entry): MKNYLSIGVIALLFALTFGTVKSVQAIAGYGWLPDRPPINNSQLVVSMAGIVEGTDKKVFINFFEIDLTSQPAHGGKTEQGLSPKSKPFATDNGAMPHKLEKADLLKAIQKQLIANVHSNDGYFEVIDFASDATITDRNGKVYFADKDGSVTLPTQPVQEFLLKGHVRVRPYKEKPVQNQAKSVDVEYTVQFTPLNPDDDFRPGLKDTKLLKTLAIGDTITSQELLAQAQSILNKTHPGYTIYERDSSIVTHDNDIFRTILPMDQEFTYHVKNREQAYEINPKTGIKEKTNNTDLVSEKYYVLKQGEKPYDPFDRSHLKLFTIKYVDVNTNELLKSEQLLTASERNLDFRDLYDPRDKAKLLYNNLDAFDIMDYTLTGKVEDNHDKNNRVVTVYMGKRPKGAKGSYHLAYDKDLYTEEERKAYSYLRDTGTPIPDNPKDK
# Streptococcus = experiment: GAS UMAA2166 growth inhibition – luminescence, BacTiterGlo, counter-screen for streptokinase expression inhibitor project, dose response (AID 1915); assay type: functional, organism-based;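 further: potency for reduction of bacterial viability or growth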
# [8] = target: FAD-linked sulfhydryl oxidase ALR (Homo sapiens, UniProt P55789); experiment: ALR-catalysed DTT oxidation blockers – biochemical, H2O2 detection, luminescence, cherry-pick, dose response (AID 493248)
# Vero = experiment: viability of Vero cells under compound – cytotoxicity control for flavivirus capping enzyme inhibitors (AID 588742); assay type: functional; conditions: Chlorocebus sabaeus
# Genome polyprotein = Genome polyprotein (dengue virus type 2, UniProt P29990); experiment: flavivirus cap methylation enzyme inhibition – biochemical, confirmation dose response, primary screen (AID 588689); assay type: functional
# [9] = target: T6, Polyadenylate-binding protein 1 (Homo sapiens, UniProt P11940); experiment: MLLE binding blockers, Cy5 peptide tracer – biochemical, fluorescence polarization, Cy5-PAM2 peptide, secondary, miRNA deadenylation inhibitor project, dose response (AID 602260); assay type: functional; conditions: read-out: IC50_Mean
# [10] = target: T6, Polyadenylate-binding protein 1; experiment: MLLE domain peptide-binding blockers, IC50 – biochemical, fluorescence polarization, FITC-PAM2 peptide, dose response (AID 602259); assay type: functional; conditions: read-out: IC50_Mean
# [11] = reduction of Shn3 3'UTR-driven luciferase in osteoblasts – cell-based, Clone20 osteoblasts, firefly luciferase, cherry-picked, dose response (AID 624132); assay type: functional;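 further: firefly luciferase luminescence from reporter carrying the Shn3 3'UTR in osteoblasts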
# [12] = loss of viability in HepG2 cells – cell-based, CellTiter-Glo, cherry-picked, cytotoxicity control for Shn3 inhibitor project, dose response (AID 624134); assay type: functional
# [13] = non-specific 3'UTR reporter inhibition in Clone20-Shn3RL – cell-based, Renilla luciferase, cherry-picked, counter-screen for Shn3 inhibitor project, dose response (AID 624133); assay type: functional
# Cytochrome P450 3A4 = Cytochrome P450 3A4 (Homo sapiens, UniProt P08684);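 further: CYP3A4 tested as one member of a cytochrome P450 panel screen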
# Chain of Cytochrome P450 3A4 (P08684 whole entry): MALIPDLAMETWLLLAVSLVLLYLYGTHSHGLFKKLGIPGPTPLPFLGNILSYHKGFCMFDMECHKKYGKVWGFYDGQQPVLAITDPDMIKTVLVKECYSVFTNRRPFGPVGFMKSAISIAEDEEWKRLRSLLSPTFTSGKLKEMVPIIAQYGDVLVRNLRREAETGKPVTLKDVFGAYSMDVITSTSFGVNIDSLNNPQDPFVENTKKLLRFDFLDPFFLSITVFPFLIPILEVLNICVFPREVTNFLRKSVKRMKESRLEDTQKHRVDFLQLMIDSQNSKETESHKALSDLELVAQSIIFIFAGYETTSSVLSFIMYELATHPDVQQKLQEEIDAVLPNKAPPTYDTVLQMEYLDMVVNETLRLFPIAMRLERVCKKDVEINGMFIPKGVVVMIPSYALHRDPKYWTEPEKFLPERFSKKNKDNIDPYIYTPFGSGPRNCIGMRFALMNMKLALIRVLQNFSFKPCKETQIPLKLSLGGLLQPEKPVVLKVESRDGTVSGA
# T6 sequence (P11940 whole entry, the tested form may be a part): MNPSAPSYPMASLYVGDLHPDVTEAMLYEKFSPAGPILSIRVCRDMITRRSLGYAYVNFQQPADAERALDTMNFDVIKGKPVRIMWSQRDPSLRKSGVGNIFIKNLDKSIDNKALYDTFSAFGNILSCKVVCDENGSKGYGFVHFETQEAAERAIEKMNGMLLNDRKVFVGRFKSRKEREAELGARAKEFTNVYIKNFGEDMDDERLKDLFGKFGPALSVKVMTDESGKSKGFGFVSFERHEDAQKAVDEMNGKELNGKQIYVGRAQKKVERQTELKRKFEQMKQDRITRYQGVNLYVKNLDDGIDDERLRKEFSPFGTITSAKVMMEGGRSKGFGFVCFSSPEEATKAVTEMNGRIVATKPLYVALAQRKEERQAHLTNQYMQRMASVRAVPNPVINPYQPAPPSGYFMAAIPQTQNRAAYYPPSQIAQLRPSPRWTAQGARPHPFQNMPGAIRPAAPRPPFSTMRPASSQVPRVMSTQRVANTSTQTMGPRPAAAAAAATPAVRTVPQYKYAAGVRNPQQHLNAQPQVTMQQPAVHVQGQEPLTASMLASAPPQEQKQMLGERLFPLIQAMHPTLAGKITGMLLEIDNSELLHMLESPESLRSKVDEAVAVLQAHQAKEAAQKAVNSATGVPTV
# Chain of FAD-linked sulfhydryl oxidase ALR (P55789 whole entry): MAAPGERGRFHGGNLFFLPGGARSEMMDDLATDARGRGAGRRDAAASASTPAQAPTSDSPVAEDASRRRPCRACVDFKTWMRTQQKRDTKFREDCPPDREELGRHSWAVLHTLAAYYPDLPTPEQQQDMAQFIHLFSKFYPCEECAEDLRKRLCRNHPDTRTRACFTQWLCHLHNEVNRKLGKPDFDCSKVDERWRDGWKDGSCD
# Chain of Genome polyprotein (P29990 2492-3391 limits assumed): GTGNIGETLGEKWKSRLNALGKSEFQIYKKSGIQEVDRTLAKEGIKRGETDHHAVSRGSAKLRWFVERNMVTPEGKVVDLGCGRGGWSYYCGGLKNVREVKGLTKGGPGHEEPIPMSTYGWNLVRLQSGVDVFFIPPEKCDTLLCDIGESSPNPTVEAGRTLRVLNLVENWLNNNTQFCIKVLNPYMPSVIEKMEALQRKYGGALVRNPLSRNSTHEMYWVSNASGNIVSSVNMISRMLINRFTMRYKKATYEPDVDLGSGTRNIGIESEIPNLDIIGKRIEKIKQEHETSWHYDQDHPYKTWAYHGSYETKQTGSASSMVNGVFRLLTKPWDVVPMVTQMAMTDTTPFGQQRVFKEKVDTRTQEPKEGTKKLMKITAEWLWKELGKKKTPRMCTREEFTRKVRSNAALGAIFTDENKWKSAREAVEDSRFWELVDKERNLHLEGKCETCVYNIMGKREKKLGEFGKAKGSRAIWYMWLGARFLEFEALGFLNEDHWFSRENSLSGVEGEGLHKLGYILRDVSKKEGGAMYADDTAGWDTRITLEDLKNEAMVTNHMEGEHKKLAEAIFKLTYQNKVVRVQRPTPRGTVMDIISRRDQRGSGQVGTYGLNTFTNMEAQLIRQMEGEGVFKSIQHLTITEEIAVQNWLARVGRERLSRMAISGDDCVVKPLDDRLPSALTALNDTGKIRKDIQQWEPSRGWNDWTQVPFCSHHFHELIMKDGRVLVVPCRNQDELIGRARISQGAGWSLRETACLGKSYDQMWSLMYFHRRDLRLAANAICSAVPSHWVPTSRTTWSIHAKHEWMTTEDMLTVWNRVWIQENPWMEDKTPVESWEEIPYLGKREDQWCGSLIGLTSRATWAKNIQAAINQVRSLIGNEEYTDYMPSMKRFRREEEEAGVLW
compound,measurement,setting,value
Cc1ccc(/C=N/n2c(S)nnc2-c2cccc(Cl)c2)o1,IC50,[1],< 0.368 µM (active)
same,EC50,[2],> 53 µM (inactive)
same,IC50,[3],> 20 µM (inactive)
COc1ccc(CN2CCCCC2C)cc1C (centres undefined),IC50,[1],< 0.368 µM (active)
same,EC50,[2],2.45 µM (active)
same,IC50,[3],20 µM (active)
C/C(=N\NC(=O)c1ccccc1O)c1ccc(NC(=O)c2ccccc2)cc1,IC50,[4],7.56 µM (active)
Cc1nc2sc(C(N)=O)c(N)c2c2c1CCCC2,AC50,HEK293,10.9 µM (active)
N#Cc1ccccc1CN1C(=O)S/C(=C/c2cccn2-c2ccc(C(=O)O)cc2)C1=O,EC50,[5],> 300 µM (not active)
same,EC50,[6],15.8 µM (active)
same,EC50,[7],44 µM (active)
same,EC50,Streptokinase A,> 150 µM (not active)
same,EC50,Streptococcus,61.7 µM (active)
same,AC50,[8],86.3 µM (active)
same,IC50,[4],5.85 µM (active)
COc1cc(/C=C2/C(=O)ON=C2C)ccc1OCc1cccc(F)c1,CC50,Vero,38.2 µM (active)
same,IC50,Genome polyprotein,24.1 µM (active)
same,IC50,[9],> 66 µM (inactive)
same,IC50,[10],42.6 µM (inactive)
O=S(=O)(c1ccccc1)N1CCN(c2cc(-c3ccccc3)nc3ncnn23)CC1,AC50,HEK293,3.23 µM (active)
same,AC50,[11],1.12 µM (active)
same,AC50,[12],48.1 µM (active)
same,AC50,[13],5.98 µM (active)
same,AC50,Cytochrome P450 3A4,14.1 µM (inconclusive)
